Results as given in PubChem BioAssay (NCI).
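Step 1: Grow cells in 96-well plates. Step 2: Expose to compound for 48 hours at 5 concentrations. Step 3: Interpolate endpoints linearly; if unreached, use highest concentration. TGI is the concentration that stops growth completely.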

Experiments:
Test in all cases: DTP human tumour cell line panel, 48 h
COLO 205 colon = test system: COLO 205 colon
NCI-H522 lung = test system: NCI-H522 lung
T-47D breast = test system: T-47D breast
TK-10 renal = test system: TK-10 renal
HCC-2998 colon = test system: HCC-2998 colon
U251 CNS = test system: U251 CNS
K-562 leukemia = test system: K-562 leukemia
RXF 393 renal = test system: RXF 393 renal
HCT-116 colon = test system: HCT-116 colon
BT-549 breast = test system: BT-549 breast
SK-MEL-2 melanoma = test system: SK-MEL-2 melanoma
NCI/ADR-RES ovarian = test system: NCI/ADR-RES ovarian
IGROV1 ovarian = test system: IGROV1 ovarian
OVCAR-8 ovarian = test system: OVCAR-8 ovarian

Structure (SMILES) | TGI (COLO 205 colon) [µM] | TGI (NCI-H522 lung) [µM] | TGI (T-47D breast) [µM] | TGI (TK-10 renal) [µM] | TGI (HCC-2998 colon) [µM] | TGI (U251 CNS) [µM] | TGI (K-562 leukemia) [µM] | TGI (RXF 393 renal) [µM] | TGI (HCT-116 colon) [µM] | TGI (BT-549 breast) [µM] | TGI (SK-MEL-2 melanoma) [µM] | TGI (NCI/ADR-RES ovarian) [µM] | TGI (IGROV1 ovarian) [µM] | TGI (OVCAR-8 ovarian) [µM]
O=C(c1ccccc1)N(C(=O)c1ccccc1)c1nc(SCc2ccccc2)ns1 | 40.3 | 61.5 | > 100 | 84.5 | 49.9 | 37.8 | > 100 | > 100 | 57.3 | 70.5 | 49.5 | 78.7 | > 100 | > 100
CCOC(=O)CNC(=O)C(CSC(=O)N(O)c1ccc(Cl)cc1)NC(=O)CCC(N)C(=O)OCC (stereo unspecified) | > 50 | – | > 50 | – | > 50 | > 50 | > 50 | > 50 | > 50 | > 50 | > 50 | > 50 | > 50 | > 50
COC(=O)C(CCSC)NC(=O)CNC(=O)CSc1nnc(COc2ccc(Cl)cc2)n1-c1ccccc1 (stereo unspecified) | 33.6 | – | 54.7 | 31.4 | 27 | 31 | > 100 | 35.9 | 30.5 | 30.6 | 28.7 | > 100 | 30.2 | –
O=C(/C=C/c1ccc(Oc2cc(C(=O)/C=C/c3ccc(O)cc3)c(O)cc2O)cc1)c1ccc(O)cc1O | 6.08 | 19.1 | 27.4 | 11.6 | – | 20.7 | 16.6 | 24.8 | 4.57 | 39.3 | 28.2 | 22.7 | 11.3 | 6.09
COc1c(=O)cc2cc[nH]c3ccn(C)c1c23 | > 100 | – | > 100 | > 100 | > 100 | > 100 | > 100 | > 100 | > 100 | > 100 | > 100 | > 100 | > 100 | > 100
c1cc2nnc1SCCCSc1ccc(nn1)SCCCS2 | > 81.3 | > 100 | > 100 | 98.8 | 99.5 | > 86.9 | > 100 | 75.5 | > 54.1 | > 100 | > 86.8 | > 52.9 | > 81.3 | > 100
O=C1C(Cl)C2(CC(/C=C/c3ccccc3)=NN2c2cccc(S(=O)(=O)O)c2)N1c1nc2ccccc2s1 (stereo unspecified) | 37.8 | 20.1 | 27.9 | 30.9 | 27.8 | 32.1 | 54.3 | 42.3 | 56.1 | 28.5 | 40.9 | > 100 | 21.1 | 25
CC1(C)CC[C@]2(C)CC[C@]3(C)C(=CC[C@@H]4[C@@]5(C)CCC(=O)C(C)(C)[C@@H]5[C@H](O)C[C@]43C)[C@@H]2C1 | 32 | 31.9 | 37.7 | 30.1 | 28.9 | 30.5 | – | 31.1 | 30.5 | 35.4 | 30 | 38.6 | 32.1 | 34.3
O=c1c2cc(S(=O)(=O)O)ccc2nc(COc2ccc(Oc3ccc(Cl)cc3Cl)cc2)n1-c1ccc(Oc2ccc(Cl)cc2)cc1Cl | 34 | 47.8 | > 100 | 58.8 | – | 30.1 | 83.1 | 17.9 | 58.4 | 34.3 | 32.2 | 39.5 | 66.2 | 44.3
Cc1ccc2nc(N/N=C/c3sccc3C)cc(C)c2c1 | > 100 | – | > 100 | > 100 | > 100 | > 100 | > 100 | > 100 | > 100 | > 100 | > 100 | > 100 | > 100 | > 100
NC1CC(=O)c2c1sc(Cl)c2Cl (stereo unspecified) | > 100 | – | > 100 | > 100 | > 100 | > 100 | > 100 | > 100 | > 100 | > 100 | > 100 | > 100 | > 100 | > 100
Cc1ccc(-c2nc(N/N=C/C=C/c3ccccc3)c3ccccc3n2)cc1 | > 100 | > 100 | > 100 | 38.7 | > 100 | > 100 | > 100 | 99.6 | > 100 | 52.2 | 99.2 | > 100 | > 100 | > 100
COc1cc(O)c2c(=O)c(O)c(-c3ccc(O)c(OC)c3)oc2c1 | > 86 | 6.21 | > 100 | > 100 | > 100 | 18.1 | 10.5 | – | > 100 | > 100 | > 100 | > 100 | > 100 | > 100
CC(=O)Oc1ccc(/C=C/C(=O)OCCCOC(=O)/C=C/c2ccc(OC(C)=O)c(OC(C)=O)c2)cc1OC(C)=O | > 100 | > 100 | > 100 | > 100 | > 100 | > 100 | > 100 | > 100 | > 100 | > 100 | > 100 | > 100 | > 100 | > 100
COc1ccc(N2C(=O)/C(=C\c3cc(OC)c(OC)c(OC)c3)SC2c2ccccc2)cc1 (stereo unspecified) | > 100 | > 100 | > 100 | > 100 | > 100 | > 100 | > 100 | > 100 | > 100 | > 100 | > 100 | > 100 | – | > 100
